# From patent publication US20250099409A1, “TOPICAL THERAPEUTIC” (Beta Biofuel Solutions, LLC, priority 2022, published 2025)
# Columns and labels:
# [1] = system: severe mouth sores, pain, and skin eruptions; experiment: Example 7: Patient G, oral spray in cancer patient on Taxotere and Carboplatin chemotherapy; type: in vivo, human
# Experimental: Set up: The trial consisted of administering a topical therapeutic spray to a cancer patient receiving Taxotere and Carboplatin chemotherapy. The side effects of cancer treatment presented the patient with severe mouth sores, pain, and skin eruptions which prevented regular mastication and intake of food and some beverages. Patient G's tastebuds were also severely affected, and the taste was unreliable. […] About 250 mg/L concentration of sodium pyruvate oral spray was administered inside the mouth and throat at 1 ml per spray, two to three sprays per administration. […] The product was used ad hoc to provide continuous comfort as saliva reintroduced the chemicals causing discomfort. […] However, issues with taste were not improved with the topical therapeutic spray.
# [2] = system: burning throat due to atmospheric dryness, allergic reaction, or disease state reaction; experiment: Example 10: Patient J, oral spray for burning throat; type: in vivo, human; details: about 250 mg/L oral spray, 1 ml per spray, two to three sprays, after the first administration
# Experimental: Set up: The trial consisted of administering a topical therapeutic spray to a patient suffering from a burning throat due to atmospheric dryness, allergic reaction, or disease state reaction. About 250 mg/L concentration of sodium pyruvate oral spray was administered inside the mouth and throat at 1 ml per spray, two to three sprays per administration.
# The product was used ad hoc to provide continuous comfort.
# [3] = system: epidermal disturbances from psoriatic plaques; experiment: Example 2: Patient B, topical therapeutic wipe on psoriatic plaques on the back; type: in vivo, human
# Experimental: (§1) Set up: The trial consisted of administering a topical therapeutic wipe to patients suffering from epidermal disturbances from psoriatic plaques. […] About 250 mg/L concentration of sodium pyruvate formulated with glycerin emollient imbued was administered to the affected area via an imbued wipe. The treatment was applied twice a day, once in the morning and once in the evening.
# [4] = system: severe burning, itching, and peeling in the urethral, vaginal, and anal areas; experiment: Example 5: Patient E, imbued wipe in patient on Taxotere and Carboplatin chemotherapy with monoclonal antibody infusion; type: in vivo, human; details: continued administration of wipe
# Experimental: Set up: The trial consisted of administering a topical therapeutic imbued wipe to a patient receiving a concurrent Taxotere and Carboplatin chemotherapy, with monoclonal antibody infusion treatments. The side effects of cancer treatment presented the patient with severe burning, itching, and peeling in the urethral, vaginal, and anal areas due to the elimination of the chemicals via urine and stools. About 250 mg/L concentration of sodium pyruvate formulated with glycerin emollient wipe was used to clean the affected areas after elimination, in addition to when the discomforts were present.
# Patient E continued using the topical treatment concurrently with cancer therapy, and for about a month after.
# [5] = system: redness and burning on the general epidermis and deep muscle pain post-radiation therapy; experiment: Example 4: Patient D, spray and wipe in breast cancer patient post-radiation therapy; type: in vivo, human
# Source text: Set up: The trial consisted of administering a topical therapeutic spray and wipe to a breast cancer patient suffering from redness and burning on the general epidermis and deep muscle pain post-radiation therapy treatment. The patient received 30 daily radiation treatments in just over a month. […] The topical therapeutic spray was used afterwards ad hoc.
# [6] = system: moderate sunburn on the face, shoulders, and arms; experiment: Example 8: Patient H, spray on moderate sunburn; type: in vivo, human
# Experimental: Set up: The trial consisted of administering a topical therapeutic spray to a patient with moderate sunburn on the face, shoulders, and arms early in the summer season while working on a field project. The patient had used sunscreen, but due to the prolonged exposure, the effects of the sunburn were present. The face was particularly red as it was directly exposed to ultraviolet (UV) radiation and not covered by clothing. About 250 mg/L concentration of sodium pyruvate formulated with glycerin emollient spray was applied to the affected areas.
# The spray was applied for another day until the redness subsided.
# [7] = system: epidermal disturbances from psoriatic plaques; experiment: Example 3: Patient C, roll-on on psoriatic plaques behind ears and scalp; type: in vivo, human
# Experimental: as §1, with “spray” for “wipe”, “a patient” for “patients”, “emollient” for “emollient imbued”, “roll-on.” for “wipe.”
# [8] = system: redness, burning, and skin inflammation after exposure to irritating vegetation, e.g., poison ivy; experiment: Example 9: Patient I, spray after exposure to irritating vegetation; type: in vivo, human; details: about 250 mg/L with glycerin emollient spray, after the first administration
# Experimental: The affected area was cleaned with cold water without soap to remove the oils and waxes transferred from the plant. About 250 mg/L concentration of sodium pyruvate formulated with glycerin emollient spray was applied to the affected areas of the general epidermis.
# The topical therapeutic spray was readministered ad hoc depending on the severity of the exposure.
# [9] = system: rhinitis, and burning in the nose and throat resulting from secondhand cigarette smoke; experiment: Example 1: Patient A, topical therapeutic spray to nasal cavities and throat; type: in vivo, human
# Experimental: Set up: The trial consisted of administering a topical therapeutic spray to a patient suffering from rhinitis, and burning in the nose and throat resulting from persistent and long-term exposure to secondhand cigarette smoke. About 250 mg/L concentration of sodium pyruvate incorporated spray was administered to the nasal cavities and throat at about 1 ml per spray, administered two to three sprays per administration.
# The spray treatment was re-applied a couple of hours later. […] The spray was applied prophylactically before bed.
# [10] = system: redness, itchy splotches on the underside of the body, and fur-less areas around the ears due to ragweed pollen sensitivity; experiment: Example 6: Patient F, spray on dog with ragweed pollen sensitivity; type: in vivo, Jack Russel Terrier
# Experimental: Set up: The trial consisted of administering a topical therapeutic spray to a 5-year-old Jack Russel Terrier suffering from redness, itchy splotches on the underside of the body, and fur-less areas around the ears due to ragweed pollen sensitivity. […] After cleaning with water and drying the affected areas, about 250 mg/L concentration of sodium pyruvate spray formulated with glycerin was applied to the undercarriage and ears.
# Summary: After the first administration, the redness subsided, and the dog relaxed within 15 minutes. The treatment was administered after each time the dog went outside and continued throughout the ragweed pollen season.
compound,measurement,setting,value
O=C([O-])O.[Na+] [baking soda],"alleviation of mouth sores, pain and skin eruptions","[1]; applied to the affected areas as recommended, before the topical therapeutic",did little to alleviate the problem
"CC(=O)C(=O)[O-].[Na+] [sodium pyruvate, 2-oxopropanoic acid sodium salt]","time to reduced burning, itching, and general discomfort",[2],≤ 15 min
same,outcome with continuous administration,"[3]; about 250 mg/L with glycerin emollient, imbued wipe, twice a day","itching and burning did not return, and the skin surface returned to normal form"
same,time to reduced burning or itching,"[3]; about 250 mg/L with glycerin emollient, imbued wipe, twice a day, after administration",≤ 15 min
same,outcome when treatment was interrupted,[3]; treatment interrupted,the plaques returned along with itching and burning
same,sloughing of damaged skin,[4],ceased within a few days of continued administration
same,time to almost complete relief of pain and burn,"[1]; about 250 mg/L oral spray, 1 ml per spray, two to three sprays, after the first administration",≤ 30 min
same,consumption of food and drinks,[1]; oral spray used ad hoc,able to regularly consume food and drinks without discomfort
same,issues with taste,[1]; oral spray used ad hoc,not improved
same,"sores, pain and discomfort with use of the spray",[1]; oral spray used ad hoc,"the sores resolved, and the pain and discomfort were managed"
same,time to reduction in burning,"[5]; about 250 mg/L with glycerin emollient, after the first administration via an imbued cloth wipe",≤ 30 min
same,blistering to the skin,"[5]; about 250 mg/L with glycerin emollient, imbued cloth wipe",without any blistering to the skin
same,browning of the affected area (remark of radiation oncologist at follow-up visits),"[5]; wipe, then spray ad hoc",dissipated more rapidly than usual
same,time to reduced burning,"[6]; about 250 mg/L with glycerin emollient spray, after the first administration",≤ 15 min
same,blistering and peeling of the skin due to sunburn,[6]; spray applied for another day until the redness subsided,aided in the prevention of blistering and peeling
same,outcome with continuous administration,"[7]; about 250 mg/L with glycerin emollient, imbued roll-on, twice a day",itching and burning did not return and the skin surface returned to normal form
same,time to reduced burning and itching,"[7]; about 250 mg/L with glycerin emollient, imbued roll-on, twice a day, after administration",≤ 15 min
same,outcome when administration was interrupted,[7]; administration interrupted,the plaques returned along with itching and burning
same,time to reduced burning and itching,[8],≤ 15 min
same,effect of the second treatment on burning,[9]; about 250 mg/L spray re-applied a couple of hours later,complete alleviation of the burning to both the nose and throat
same,time to reduced burning or itching in the affected nasal and throat areas,"[9]; about 250 mg/L spray, about 1 ml per spray, two to three sprays, after the first administration",≤ 15 min
same,recurrence of pain and burning,[9]; spray also applied prophylactically before bed,never returned
same,time until the redness subsided and the dog relaxed,"[10]; about 250 mg/L spray with glycerin on undercarriage and ears, after the first administration",≤ 15 min
same,outcome when administration was interrupted,"[10]; during the pollen season, administration interrupted","the itching, redness, and scratching returned"
